Assay results: patent US8623904B2, “Use of tetramic acid derivatives for controlling pests by watering or droplet application” (Bayer CropScience AG, priority 2007, dated 2014)

Columns and labels:
Leveillula taurica = experiment: Drench application to bell pepper plants, natural infection with Leveillula taurica, efficacy by Abbott formula; assay type: in vivo; settings: 240 SC, watered 50 ml, bell pepper "Shishitou aoi", 21 days after treatment
Description: 8 plots each 2.25 m^2 in size with bell pepper plants of the cultivar “Shishitou aoi” are, in two replications, watered with 50 ml of an active compound solution comprising the active compound (II) (formulation: 240 SC) at the stated application rate. Following a severe natural infection with Leveillula taurica, evaluation is carried out 21 days after the treatment by determining the efficacy using the Abbott formula*.
(§1) Calculation of the efficacy according to Abbott:
(§2) [formula] where X=value for the control and Y=value for the compound tested

Oidium Iycopersicum = experiment: Drench application to tomato plants on rock wool, infection with powdery mildew Oidium Iycopersicum, efficacy by Abbott formula; assay type: in vivo; settings: 40 mg of active compound/plant, 240 SC, watered 100 ml; for Efficacy (% Abbott) against Oidium Iycopersicum 14 d: 14 d after infection; for Efficacy (% Abbott) against Oidium Iycopersicum 23 d: 23 d after infection; for Efficacy (% Abbott) against Oidium Iycopersicum 28 d new growth / Efficacy (% Abbott) against Oidium Iycopersicum 28 d old leaves: 28 d after infection
Description: In each case three tomato plants of the cultivar “Hoffmanns Rendita” on rock wool are, in two replications, watered one week after transplantation with in each case 100 ml of active compound solution comprising the active compound (II) (formulation: 240 SC) at the stated application rate. The greenhouse temperature is 20° C. during the day and 17° C. at night. Infection with the powdery mildew Oidium Iycopersicum is in each case carried out two and seven days after the active compound application. Evaluation is in each case carried out 14, 23, 28, 35 days after the respective infection by determining the efficacy on the old leaves and the new growth using the Abbott formula*.
as §1, §2

CCOC(=O)OC1=C(c2cc(C)ccc2C)C(=O)N[C@]12CC[C@@H](OC)CC2 [Active compound (II)]
Efficacy (% Abbott) against Leveillula taurica 21 d (Leveillula taurica; 40 mg of active compound/plant): 87.4 % Abbott | Efficacy (% Abbott) against Leveillula taurica 21 d (Leveillula taurica; 60 mg of active compound/plant): 100 % Abbott | Efficacy (% Abbott) against Leveillula taurica 21 d (Leveillula taurica; 80 mg of active compound/plant): 100 % Abbott | Efficacy (% Abbott) against Oidium Iycopersicum 14 d (Oidium Iycopersicum; 2 d prior to infection): 33 % Abbott | Efficacy (% Abbott) against Oidium Iycopersicum 23 d (Oidium Iycopersicum; 2 d prior to infection): 40 % Abbott | Efficacy (% Abbott) against Oidium Iycopersicum 28 d new growth (Oidium Iycopersicum; 2 d prior to infection): 65 % Abbott | Efficacy (% Abbott) against Oidium Iycopersicum 28 d old leaves (Oidium Iycopersicum; 2 d prior to infection): 41 % Abbott | Efficacy (% Abbott) against Oidium Iycopersicum 14 d (Oidium Iycopersicum; 7 d prior to infection): 45 % Abbott | Efficacy (% Abbott) against Oidium Iycopersicum 23 d (Oidium Iycopersicum; 7 d prior to infection): 45 % Abbott | Efficacy (% Abbott) against Oidium Iycopersicum 28 d new growth (Oidium Iycopersicum; 7 d prior to infection): 77 % Abbott | Efficacy (% Abbott) against Oidium Iycopersicum 28 d old leaves (Oidium Iycopersicum; 7 d prior to infection): 45 % Abbott
